Test results reported in the NIST ThermoML archive (doi:10.1021/acs.jced.8b01135).

Assay: xn = mol fraction of the nth substance listed
Conditions: 102 kPa, Liquid; for speed of sound: Frequency=3 MHz, Single path-length method; for mass density: Vibrating tube method; for viscosity: Concentric cylinders viscometry

CCCCCC1CCCCC1 [pentylcyclohexane] + CCCCCCCCCCCC
Conditions	mass density [kg/m3]	speed of sound [m/s]	viscosity [mPa·s]
288.15 K, x1 = 0.1009	757.14	1321.1	–
288.15 K, x1 = 0.2001	761.98	1324.9	–
288.15 K, x1 = 0.3003	767.03	1329.1	–
288.15 K, x1 = 0.4009	772.26	1333.4	–
288.15 K, x1 = 0.5001	777.64	1338.1	–
288.15 K, x1 = 0.6	783.17	1343	–
288.15 K, x1 = 0.7003	789	1348.1	–
288.15 K, x1 = 0.8136	795.88	1354.4	–
288.15 K, x1 = 0.9082	801.77	1359.9	–
288.15 K, x1 = 1	807.78	1365.8	–
293.15 K, x1 = 0.1009	753.52	1301.6	1.5
293.15 K, x1 = 0.2001	758.36	1305.5	1.51
293.15 K, x1 = 0.3003	763.41	1309.6	1.52
293.15 K, x1 = 0.4009	768.64	1313.9	1.54
293.15 K, x1 = 0.5001	774.02	1318.6	1.55
293.15 K, x1 = 0.6	779.55	1323.4	1.57
293.15 K, x1 = 0.7003	785.37	1328.5	1.6
293.15 K, x1 = 0.8136	792.25	1334.7	1.62
293.15 K, x1 = 0.9082	798.13	1340.2	1.66
293.15 K, x1 = 1	804.13	1346	1.69
298.15 K, x1 = 0.1009	749.9	1282.5	–
298.15 K, x1 = 0.2001	754.73	1286.2	–
298.15 K, x1 = 0.3003	759.79	1290.3	–
298.15 K, x1 = 0.4009	765.01	1294.6	–
298.15 K, x1 = 0.5001	770.39	1299.2	–
298.15 K, x1 = 0.6	775.92	1304	–
298.15 K, x1 = 0.7003	781.74	1309.1	–
298.15 K, x1 = 0.8136	788.61	1315.2	–
298.15 K, x1 = 0.9082	794.48	1320.6	–
298.15 K, x1 = 1	800.48	1326.4	–
303.15 K, x1 = 0.1009	746.27	1263.2	1.28
303.15 K, x1 = 0.2001	751.1	1267.1	1.29
303.15 K, x1 = 0.3003	756.16	1271.2	1.3
303.15 K, x1 = 0.4009	761.38	1275.4	1.31
303.15 K, x1 = 0.5001	766.76	1280	1.32
303.15 K, x1 = 0.6	772.28	1284.8	1.34
303.15 K, x1 = 0.7003	778.1	1289.8	1.35
303.15 K, x1 = 0.8136	784.97	1295.8	1.38
303.15 K, x1 = 0.9082	790.84	1301.1	1.4
303.15 K, x1 = 1	796.82	1306.7	1.43
313.15 K, x1 = 0.1009	738.99	1225.5	1.08
313.15 K, x1 = 0.2001	743.83	1229.3	1.09
313.15 K, x1 = 0.3003	748.88	1233.4	1.1
313.15 K, x1 = 0.4009	754.1	1237.6	1.11
313.15 K, x1 = 0.5001	759.47	1242.1	1.12
313.15 K, x1 = 0.6	764.99	1246.8	1.14
313.15 K, x1 = 0.7003	770.8	1251.7	1.15
313.15 K, x1 = 0.8136	777.66	1257.6	1.17
313.15 K, x1 = 0.9082	783.52	1262.8	1.19
313.15 K, x1 = 1	789.49	1268.2	1.21
323.15 K, x1 = 0.1009	731.68	1188.3	0.941
323.15 K, x1 = 0.2001	736.51	1192.1	0.949
323.15 K, x1 = 0.3003	741.57	1196.2	0.957
323.15 K, x1 = 0.4009	746.79	1200.3	0.967
323.15 K, x1 = 0.5001	752.16	1204.8	0.976
323.15 K, x1 = 0.6	757.67	1209.6	0.988
323.15 K, x1 = 0.7003	763.48	1214.3	1
323.15 K, x1 = 0.8136	770.33	1220.1	1.02
323.15 K, x1 = 0.9082	776.17	1225.1	1.03
323.15 K, x1 = 1	782.14	1230.5	1.05
333.15 K, x1 = 0.1009	724.33	1151.9	0.819
333.15 K, x1 = 0.2001	729.17	1155.8	0.825
333.15 K, x1 = 0.3003	734.22	1159.8	0.833
333.15 K, x1 = 0.4009	739.44	1163.9	0.841
333.15 K, x1 = 0.5001	744.8	1168.3	0.851
333.15 K, x1 = 0.6	750.31	1172.9	0.861
333.15 K, x1 = 0.7003	756.11	1177.6	0.871
333.15 K, x1 = 0.8136	762.96	1183.4	0.887
333.15 K, x1 = 0.9082	768.8	1188.4	0.897
333.15 K, x1 = 1	774.75	1193.5	0.914

CCCCCCCC1CCCCC1 [heptylcyclohexane] + CCCCCCCCCCCC
Conditions	mass density [kg/m3]	speed of sound [m/s]	viscosity [mPa·s]
288.15 K, x1 = 0.1002	758.6	1324.4	–
288.15 K, x1 = 0.201	764.82	1331.8	–
288.15 K, x1 = 0.3	771.01	1339.3	–
288.15 K, x1 = 0.3998	777.16	1346.8	–
288.15 K, x1 = 0.5002	783.44	1354.4	–
288.15 K, x1 = 0.5999	789.63	1362	–
288.15 K, x1 = 0.6998	795.81	1369.8	–
288.15 K, x1 = 0.8001	802.09	1377.6	–
288.15 K, x1 = 0.8998	808.24	1385.6	–
288.15 K, x1 = 1	814.51	1393.6	–
293.15 K, x1 = 0.1002	754.98	1304.9	1.57
293.15 K, x1 = 0.201	761.22	1312.4	1.67
293.15 K, x1 = 0.3	767.42	1319.9	1.76
293.15 K, x1 = 0.3998	773.59	1327.3	1.87
293.15 K, x1 = 0.5002	779.88	1335.1	1.99
293.15 K, x1 = 0.5999	786.08	1342.8	2.12
293.15 K, x1 = 0.6998	792.27	1350.4	2.26
293.15 K, x1 = 0.8001	798.57	1358.3	2.42
293.15 K, x1 = 0.8998	804.73	1366.2	2.6
293.15 K, x1 = 1	811	1374.2	2.8
298.15 K, x1 = 0.1002	751.36	1285.5	–
298.15 K, x1 = 0.201	757.61	1293.1	–
298.15 K, x1 = 0.3	763.84	1300.8	–
298.15 K, x1 = 0.3998	770.01	1308	–
298.15 K, x1 = 0.5002	776.32	1316	–
298.15 K, x1 = 0.5999	782.53	1323.6	–
298.15 K, x1 = 0.6998	788.73	1331.1	–
298.15 K, x1 = 0.8001	795.04	1339.3	–
298.15 K, x1 = 0.8998	801.21	1346.9	–
298.15 K, x1 = 1	807.49	1355.1	–
303.15 K, x1 = 0.1002	747.74	1266.3	1.33
303.15 K, x1 = 0.201	754.01	1273.9	1.41
303.15 K, x1 = 0.3	760.25	1281.8	1.48
303.15 K, x1 = 0.3998	766.42	1288.8	1.57
303.15 K, x1 = 0.5002	772.75	1297	1.66
303.15 K, x1 = 0.5999	778.98	1304.7	1.74
303.15 K, x1 = 0.6998	785.18	1312.1	1.85
303.15 K, x1 = 0.8001	791.51	1320.3	1.97
303.15 K, x1 = 0.8998	797.69	1327.9	2.11
303.15 K, x1 = 1	803.98	1336.1	2.25
313.15 K, x1 = 0.1002	740.48	1228.4	1.13
313.15 K, x1 = 0.201	746.79	1236.2	1.19
313.15 K, x1 = 0.3	753.05	1244.2	1.25
313.15 K, x1 = 0.3998	759.25	1251.2	1.32
313.15 K, x1 = 0.5002	765.6	1259.6	1.39
313.15 K, x1 = 0.5999	771.86	1267.3	1.47
313.15 K, x1 = 0.6998	778.09	1274.6	1.54
313.15 K, x1 = 0.8001	784.43	1283	1.63
313.15 K, x1 = 0.8998	790.64	1290.5	1.73
313.15 K, x1 = 1	796.95	1298.8	1.85
323.15 K, x1 = 0.1002	733.2	1191.3	0.976
323.15 K, x1 = 0.201	739.54	1199.2	1.02
323.15 K, x1 = 0.3	745.82	1207.3	1.08
323.15 K, x1 = 0.3998	752.06	1214.3	1.13
323.15 K, x1 = 0.5002	758.43	1222.8	1.19
323.15 K, x1 = 0.5999	764.71	1230.6	1.25
323.15 K, x1 = 0.6998	770.98	1238	1.32
323.15 K, x1 = 0.8001	777.34	1246.3	1.38
323.15 K, x1 = 0.8998	783.57	1253.9	1.45
323.15 K, x1 = 1	789.91	1262.2	1.55
333.15 K, x1 = 0.1002	725.89	1155.3	0.851
333.15 K, x1 = 0.201	732.26	1163.2	0.891
333.15 K, x1 = 0.3	738.56	1171.2	0.933
333.15 K, x1 = 0.3998	744.84	1178.5	0.977
333.15 K, x1 = 0.5002	751.23	1186.8	1.03
333.15 K, x1 = 0.5999	757.54	1194.6	1.08
333.15 K, x1 = 0.6998	763.84	1202.4	1.14
333.15 K, x1 = 0.8001	770.22	1210.5	1.18
333.15 K, x1 = 0.8998	776.49	1218.5	1.23
333.15 K, x1 = 1	782.85	1226.7	1.31
